Measurements reported in US20130150376A1, “Novel Sultam Compounds” (PFIZER INC., priority 2010, published 2013).
Counter-ions that a name gives are not always drawn. Like-named read-outs stand apart in the source and are kept apart here.

Target: T1, BACE1 enzyme (soluble, truncated BACE enzyme, BACE1deltaTM96His) (Homo sapiens, UniProt P56817)
T1 construct: soluble, truncated BACE enzyme (BACE1deltaTM96His); His; made in house
Assay: BACE1 Fluorescent Polarization (FP) Assay
Assay type: biochemical
Conditions: geometric mean of 2-4 IC50 determinations unless footnoted (^2: 5-6 determinations; ^4: single determination)
From the text: BACE1 Fluorescent Polarization (FP) Assay
The fluorescently tagged synthetic substrate, Biotin-GLTNIKTEEISEISŶEVEFR-C[oregon green]KK-OH can be efficiently cleaved by the beta-secretase enzyme and is therefore useful to assay beta-secretase activity in the presence or absence of inhibitory compounds. The his tagged BACE1 enzyme was affinity purified material from conditioned media of CHO-K1 cells that had been transfected to express soluble, truncated BACE enzyme (BACE1deltaTM96His). Compounds were incubated in a ½ log dose response (from a top concentration of 100 μM) with BACE1 enzyme (0.1 nM final) and the biotinylated fluorescent peptide substrate (150 nM final) in assay buffer containing 100 mM sodium acetate, pH 4.5 (brought to pH with acetic acid), and 0.001% Tween-20. Total reaction volumes of 30 μL were carried out in 384-well black plates (Thermo Scientific 4318). Plates were covered and incubated for 3 hours at 37° C. The reactions were then stopped by addition of 30 μL of 1.5 μM Streptavidin (Pierce, 21125). After a 10 minute incubation at room temperature, plates were read on a PerkinElmer Envision for fluorescence polarization (Ex485 nm/Em530 nm). The activity of the beta-secretase enzyme is detected by changes in the fluorescence polarization (Δ mP) that occur when the substrate is cleaved by the enzyme.

[1] = 8-point curve, read-out: BACE activity, 8-point curve, IC50
[2] = 11-point curve, read-out: BACE activity, 11-point curve, IC50

T1 sequence (P56817 46-457): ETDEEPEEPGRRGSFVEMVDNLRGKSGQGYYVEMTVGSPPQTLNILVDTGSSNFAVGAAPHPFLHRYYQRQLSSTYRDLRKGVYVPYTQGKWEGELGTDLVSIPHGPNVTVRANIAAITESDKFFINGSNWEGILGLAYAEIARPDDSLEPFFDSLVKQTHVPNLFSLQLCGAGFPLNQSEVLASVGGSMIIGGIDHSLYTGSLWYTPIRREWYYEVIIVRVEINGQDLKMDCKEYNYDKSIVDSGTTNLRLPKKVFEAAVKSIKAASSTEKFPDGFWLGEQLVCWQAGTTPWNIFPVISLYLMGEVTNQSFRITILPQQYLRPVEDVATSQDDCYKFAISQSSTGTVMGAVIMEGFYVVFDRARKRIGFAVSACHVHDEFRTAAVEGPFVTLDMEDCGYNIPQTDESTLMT

Row | SMILES | IC50 [1] [nM] | IC50 [2] [nM]
1 | C[C@H]1C[C@@]2(C=CS(=O)(=O)N2c2cccc(F)c2)CCN1Cc1ccc(O)c(OC(F)(F)F)c1 [Example 10, 4-{[(5R,7S)-1-(3-fluorophenyl)-7-methyl-2,2-dioxido-2-thia-1,8-diazaspiro[4.5]dec-3-en-8-yl]methyl}-2-(trifluoromethoxy)phenol, hydrochloride salt] | 181 | –
2 | Cc1ccccc1-c1cc(CN2CC[C@]3(CCS(=O)(=O)N3c3cccc(F)c3)C[C@@H]2C)ccc1O [Example 62, 5-{[(5R,7S)-1-(3-fluorophenyl)-7-methyl-2,2-dioxido-2-thia-1,8-diazaspiro[4.5]dec-8-yl]methyl-2′-methylbiphenyl-2-ol, hydrochloride salt] | 19 | 33.3
3 | Cc1cccnc1-c1cc(CN2CC[C@]3(C=CS(=O)(=O)N3c3cccc(F)c3)C[C@@H]2C)ccc1F [Example 78, (5R,7S)-8-[4-fluoro-3-(3-methylpyridin-2-yl)benzyl]-1-(3-fluorophenyl)-7-methyl-thia-1,8-diazaspiro[4.5]dec-3-ene 2,2-dioxide] | – | 5650
4 | Cc1cncc(-c2ocnc2CN2CC[C@]3(C=CS(=O)(=O)N3c3cccc(F)c3)C[C@@H]2C)c1 [Example 38, (5R,7S)-1-(3-fluorophenyl)-7-methyl-8-{[5-(5-methylpyridin-3-yl)-1,3-oxazol-4-yl]methyl}-2-thia-1,8-diazaspiro[4.5]dec-3-ene 2,2-dioxide] | 752 | 2780
5 | CC(C)Oc1cc(CN2CC[C@]3(CCS(=O)(=O)N3c3cccc(F)c3)C[C@@H]2C)ccc1O [Example 1, 4-{[(5R,7S)-1-(3-Fluorophenyl)-7-methyl-2,2-dioxido-2-thia-1,8-diazaspiro[4.5]dec-8-yl]methyl}-2-isopropoxyphenol] | 35 | –
6 | Cc1ccncc1-c1ncsc1CN1CC[C@]2(C=CS(=O)(=O)N2c2cccc(F)c2)C[C@@H]1C [Example 50, (5R,7S)-1-(3-fluorophenyl)-7-methyl-8-{[4-(4-methylpyridin-3-yl)-1,3-thiazol-5-yl]methyl}-2-thia-1,8-diazaspiro[4.5]dec-3-ene 2,2-dioxide, hydrochloride salt] | 7180 | 25600
7 | C[C@H]1C[C@@]2(C=CS(=O)(=O)N2c2cccc(F)c2)CCN1Cc1ncoc1C1CCCO1 (stereo partly drawn) [Example 70, (5R,7S)-1-(3-fluorophenyl)-7-methyl-8-{[5-(tetrahydrofuran-2-yl)-1,3-oxazol-4-yl]methyl}-2-thia-1,8-diazaspiro[4.5]dec-3-ene 2,2-dioxide] | 2560 | 6810
8 | C[C@H]1C[C@@]2(C=CS(=O)(=O)N2c2cccc(F)c2)CCN1Cc1ncoc1-c1cncnc1 [Example 23, (5R,7S)-1-(3-fluorophenyl)-7-methyl-8-[(5-pyrimidin-5-yl-1,3-oxazol-4-yl)methyl]-2-thia-1,8-diazaspiro[4.5]dec-3-ene 2,2-dioxide, hydrochloride salt] | 428 | 1450
9 | C[C@H]1C[C@@]2(C=CS(=O)(=O)N2c2cccc(F)c2)CCN1Cc1ccc(O)c(OC2CC2)c1 [Example 13, 2-(cyclopropyloxy)-4-{[(5R,7S)-1-(3-fluorophenyl)-7-methyl-2,2-dioxido-2-thia-1,8-diazaspiro[4.5]dec-3-en-8-yl]methyl}phenol, hydrochloride salt] | 18.4 | –
10 | C[C@H]1C[C@@]2(C=CS(=O)(=O)N2c2cccc(F)c2)CCN1Cc1ccc(O)c(C2CCCO2)c1 (single isomer, unassigned) [Example 31] | 10.5 | 62.6
11 | Cc1ccccc1-c1cc(CN2CC[C@]3(C=CS(=O)(=O)N3c3cccc(F)c3)C[C@@H]2C)ccc1O [Example 25, 5-{[(5R,7S)-1-(3-fluorophenyl)-7-methyl-2,2-dioxido-2-thia-1,8-diazaspiro[4.5]dec-3-en-8-yl]methyl}-2′-methylbiphenyl-2-ol, hydrochloride salt] | 14.3 | 28.4
